Results reported in patent US7928182B2, “Glycerol polycarbonate, organic compositions containing same and method for obtaining said compositions” (Condat S.A., priority 2004, dated 2011).

Assays:
Assay type in all cases: physicochemical
[1] = Combustion heat (ASTM D240); settings: reference samples and control
Method: b) The combustion heat (kJ/g) was also measured according to standard ASTM D240. The combustion heat characterises the calorific energy released by a burning compound. The higher this value is, the better fuel a compound is and the more the “fire” is maintained by this factor, which is the temperature.

Density (densimeter) = settings: 25° C., glycerol carbonate alone; in g/cm3 (unit assumed)
[2] = Surface tension (ring tensiometer); settings: 25° C., glycerol carbonate alone; in mN/m (unit assumed)

Structure (SMILES)	Combustion heat [1]	Density (Density (densimeter))	Surface tension [2]
CCO [Ethanol]	26.4 kJ/g	–	–
CCCCCCC [Heptane]	40.2 kJ/g	–	–
CO [Methanol]	19.6 kJ/g	–	–
O=C1OCC(CO)O1 (centres unmarked) [glycerol carbonate]	–	1.386	53.81
